Measurements reported in ChEMBL document CHEMBL3045964, “Synthesis, cytotoxicity, and structureactivity insight of NH- and N-methyl-3,5-bis-(arylidenyl)-4-piperidones” (Med Chem Res, 2013).

Legend:
[1] = test system: L1210; test: Cytotoxicity against Mus musculus (mouse) L1210 cells assessed as growth inhibition after 72 hr by MTT assay; format: functional, cell-based; conditions: L1210, 72 h
[2] = test system: B16; test: Cytotoxicity against Mus musculus (mouse) B16 cells assessed as growth inhibition after 72 hr by MTT assay; format: functional, cell-based; conditions: B16, 72 h

| SMILES | IC50 [1] | IC50 [2] |
| --- | --- | --- |
| CCN(CC)c1ccc(/C=C2\CN(C)C/C(=C\c3ccc(N(CC)CC)cc3)C2=O)cc1 | 3.3 µM | 33 µM |
| CN1C/C(=C\c2ccc(F)cc2)C(=O)/C(=C/c2ccc(F)cc2)C1 | 31 µM | 6.5 µM |
| CN1C/C(=C\c2ccc(Cl)cc2)C(=O)/C(=C/c2ccc(Cl)cc2)C1 | 10 µM | 3.8 µM |
| CN(C)c1ccc(/C=C2\CNC/C(=C\c3ccc(N(C)C)cc3)C2=O)cc1 | 42.5 µM | 32.5 µM |
| COc1ccc(/C=C2\CNC/C(=C\c3ccc(OC)nc3)C2=O)cn1 | 2.8 µM | 3.6 µM |
| CCN(CC)c1ccc(/C=C2\CNC/C(=C\c3ccc(N(CC)CC)cc3)C2=O)cc1 | 35 µM | 1.5 µM |
| COc1cc(/C=C2\CNC/C(=C\c3cc(OC)cc(OC)c3)C2=O)cc(OC)c1 | 0.3 µM | 0.3 µM |
| O=C1/C(=C/c2ccc(O)c([N+](=O)[O-])c2)CNC/C1=C\c1ccc(O)c([N+](=O)[O-])c1 | 2 µM | 7.3 µM |
| O=C1/C(=C/c2ccc(Cl)c(Cl)c2)CNC/C1=C\c1ccc(Cl)c(Cl)c1 | 3.6 µM | 4.1 µM |
| CN1C/C(=C\c2cccc(Br)c2)C(=O)/C(=C/c2cccc(Br)c2)C1 | 5 µM | 2.1 µM |
| CN1C/C(=C\c2ccc(N(C)C)cc2)C(=O)/C(=C/c2ccc(N(C)C)cc2)C1 | 28.5 µM | 23.5 µM |
| O=C1/C(=C/c2ccc(F)cc2)CNC/C1=C\c1ccc(F)cc1 | 24.5 µM | 3.8 µM |
| CCN(CC)c1ccc2cc(/C=C3\CNC/C(=C\c4cc5ccc(N(CC)CC)cc5oc4=O)C3=O)c(=O)oc2c1 | 29 µM | 44 µM |
| O=C1/C(=C/c2cccc(O)c2)CNC/C1=C\c1cccc(O)c1 | 2.3 µM | 0.7 µM |
| O=C1/C(=C/c2ccc3c(c2)OCO3)CNC/C1=C\c1ccc2c(c1)OCO2 | 12.5 µM | 25 µM |
| O=C1/C(=C/c2ccc(Cl)cc2)CNC/C1=C\c1ccc(Cl)cc1 | 7 µM | 4 µM |
| COc1ccc(OC)c(/C=C2\CNC/C(=C\c3cc(OC)ccc3OC)C2=O)c1 | 0.3 µM | 0.3 µM |
| COc1cc(OC)c(/C=C2\CNC/C(=C\c3c(OC)cc(OC)cc3OC)C2=O)c(OC)c1 | 1.1 µM | 0.2 µM |
| COc1cccc(/C=C2\CNC/C(=C\c3cccc(OC)c3)C2=O)c1 | 4.3 µM | 1.9 µM |
| O=C1/C(=C/c2cccc(Br)c2)CNC/C1=C\c1cccc(Br)c1 | > 100 µM | 2.1 µM |
